Reference: patent US9718770B2, “Substituted thioureas as heat shock protein 70 inhibitors” (Institute of Pharmacology and Toxicology Academy of …, priority 2013, dated 2017)

What was measured:
SK/Lap^R1.0 = assay: CDI of example compounds and Lapatinib (ATPlite cell survival); assay type: cell-based; details: compound 5 μM + Lapatinib 1 μM, 72 h; secondary Lapatinib-resistant human breast cancer cells; CDI<1 synergistic
Protocol: (§1) Cells: (BT474 and SK-BR3 are Lapatinib-sensitive human breast cancer cell strains; BT/LapR and SK/LapR are secondary Lapatinib-resistant human breast cancer cell strains upon Lapatinib stimulation; MDA-MB-361 and MDA-MB-453 are natural Lapatinib-resistant human breast cancer cell strains. BT474, MDA-MB-361, SK-BR3 and MDA-MB-453 are from American Type Culture Collection (ATCC))
(§2) In a 100 mm culture dish full of adherent cells, digestion with 1 ml 0.25% pancreatin (GIBCO) was carried out at 37° C. for 5 min, and the reaction was stopped with 2 ml medium (containing 10% FBS, GIBCO). The cells were dispersed and collected. After cell count, the cells were diluted to a concentration of 1×10^5 cells/ml, and were seeded to a 96-well plate at 50 μl/well, 5000 cell/well, 60 wells in total, PBS instead of cells was added to the wells of the outmost circle, and the incubation was carried out at 37° C. for 24 h for adherence.
(§3) For the sample group, samples to be tested were diluted with DMSO to a final concentration of 5 μM; to control wells, the medium containing the same concentration of solvent corresponding to the compound was added, the concentrations of the compounds were identical in each well, 5 wells in parallel were set for each concentration, 25 μL/well, and 25 μL medium was added to each well (for the combination group, 25 μL Lapatinib was added to reach a final concentration of 1 μM). The incubation was carried out at 37° C. for 72 h.
(§4) To each well, 50 μL ATPlite kit substrate solution was added. The plate was under shaking for 3 min, and was then placed in dark for 10 min. The lysis supernatant was drawn at 100 μL/well, and placed in a luminescent plate. The incubated luminescent plate was placed in an iluminescence apparatus, and the iluminescent value was read.
(§5) Data Processing Cell survival rate (%)=Experimental group RLU/control group RLU×100%
(§6) Coefficient of drug interaction (CDI) is used to evaluate the interaction of two drugs, CDI is calculated in accordance with the following formula: CDI=AB/(A×B)×100%. The calculation is performed according to the number of live cells (luminescent value), if CDI<1, the two drugs have a synergistic effect; if CDI<0.7, the synergistic effect is very significant; if CDI=1, the effect of the two drugs in combination is the sum of the effects of the two drugs; if CDI>1, the two drugs have an antagonistic effect.

BT/Lap^R1.0 = assay: as above; assay type: cell-based; details: compound 5 μM + Lapatinib 1 μM, 72 h; secondary Lapatinib-resistant human breast cancer cells; CDI<1 synergistic
Protocol: as §1, §2, §3, §4, §5, §6

MDA-MB-361 = assay: as above; assay type: cell-based; set-up: key: CDI = AB/(A×B); <1 synergistic; details: compound 5 μM + Lapatinib 1 μM, 72 h; natural Lapatinib-resistant human breast cancer cells; CDI<1 synergistic
Protocol: as §1, §2, §3, §4, §5, §6

MDA-MB-453 = assay: as above; assay type: cell-based; set-up: key: CDI = AB/(A×B); <1 synergistic; details: compound 5 μM + Lapatinib 1 μM, 72 h; natural Lapatinib-resistant human breast cancer cells; CDI<1 synergistic
Protocol: as §1, §2, §3, §4, §5, §6

BT474 = assay: as above; assay type: cell-based; set-up: key: CDI = AB/(A×B); <1 synergistic; details: compound 5 μM + Lapatinib 1 μM, 72 h; Lapatinib-sensitive human breast cancer cells; CDI<1 synergistic, <0.7 very significant, >1 antagonistic
Protocol: as §1, §2, §3, §4, §5, §6

SK-BR3 = assay: as above; assay type: cell-based; set-up: key: CDI = AB/(A×B); <1 synergistic; details: compound 5 μM + Lapatinib 1 μM, 72 h; Lapatinib-sensitive human breast cancer cells; CDI<1 synergistic
Protocol: as §1, §2, §3, §4, §5, §6

Hsp70 ATPase = target: T1, Hsp70 ATPase (Homo sapiens, UniProt P0DMV8); assay: Inhibition of Hsp70 ATPase activity (malachite green); assay type: biochemical; details: for inhibition at 200 µM / Inhibitory rate (%) on activity of Hsp70 ATPase: repeated screening carried out twice, Hsp70/Hsp40, 1 mM ATP; for inhibition at 200 µM: read-out: Inhibitory rate (%) on activity of Hsp70 ATPase; for inhibition at 200 µM / Inhibitory rate (%) on activity of Hsp70 ATPase / inhibitory rate of Hsp70 ATPase activity: 200 μM; for dose-response relationship with respect to inhibition of Hsp70 ATPase activity: first preliminary screening, 200, 100, 50, 25 and 12.5 μM with Hsp70/Hsp40, FIGS. 1, 2; for inhibitory rate of Hsp70 ATPase activity: preliminary screening, after incubation for 30 min
T1 construct: made in house; host or cells: E. coli
T1 sequence (P0DMV8 2-641 limits assumed): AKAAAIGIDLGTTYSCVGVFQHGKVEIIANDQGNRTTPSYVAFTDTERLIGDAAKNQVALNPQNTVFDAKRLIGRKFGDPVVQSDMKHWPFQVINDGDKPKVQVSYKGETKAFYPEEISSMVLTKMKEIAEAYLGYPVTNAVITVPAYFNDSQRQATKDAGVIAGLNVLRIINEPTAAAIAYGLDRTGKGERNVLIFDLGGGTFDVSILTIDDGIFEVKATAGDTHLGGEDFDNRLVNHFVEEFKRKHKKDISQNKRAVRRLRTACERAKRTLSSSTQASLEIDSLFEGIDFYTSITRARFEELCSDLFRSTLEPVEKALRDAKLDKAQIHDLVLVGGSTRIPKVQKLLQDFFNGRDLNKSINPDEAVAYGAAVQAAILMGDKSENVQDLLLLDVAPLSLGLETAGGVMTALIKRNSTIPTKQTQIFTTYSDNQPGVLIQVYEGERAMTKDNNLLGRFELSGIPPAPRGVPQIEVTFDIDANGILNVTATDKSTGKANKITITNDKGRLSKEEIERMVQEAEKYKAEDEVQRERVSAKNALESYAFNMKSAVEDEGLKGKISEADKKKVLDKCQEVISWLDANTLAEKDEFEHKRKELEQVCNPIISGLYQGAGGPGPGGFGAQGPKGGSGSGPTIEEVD
Protocol: (1) Protein: Humanized Hsp70, Hsp40, expressed by E. coli.
(2) Sample to be tested: 26 compound solids with different colors and states. Positive drugs AZ (CAS:1054543-47-3) and VER 155008 (CAS: 1134156-31-2) were synthesized in the laboratory.
(4) ATPase Assay buffer: • 0.017% Triton X-100; • 100 mM Tris-HCl; • 20 mM KCl; • 6 mM MgCl2, pH 7.4.
1) 13.08 μl DnaK (0.15 mg/mL, 2.14 μM), 1.96 μl DnaJ (1 mg/mL, 25 μM) were dissolved in 7.96 μl Assay Buffer (0.017% Triton X-100, 100 mM Tris-HCl, 20 mM KCl, and 6 mM MgCl2, pH 7.4), and the resultant solution was added to each well of the 96 well plate;
2) to each well of the 96 well plate, 1 μL sample to be tested (5 mM) or DMSO (solvent) was added, and vortexed with a Vortex agitator for 10 min; and then standing at 37° C. for 30 min;
3) to each well, 1 μL 25 mM ATP was added, to trigger the enzymatic reaction; (in each well, the final reaction volume was 25 μL, the final concentration of DnaK was 1.12 μM, the final concentration of DnaJ was 1.96 μM, the final concentration of DMSO was 4%, the final concentration of Triton X-100 was 0.01%, the final concentration of ATP was 1 mM, and the final concentration of sample to be tested was 200 μM), the enzymatic reaction was carried out at 37° C. for 3 h;
4) 80 μL Malachite green staining solution was then added to each well, and was vortexed gently;
5) 10 μL of 34% citrate sodium was then added immediately, and vortexed gently, to stop the ATP hydrolysis not caused by ATPase;
6) the resultant mixture was mixed thoroughly at 37° C. for 15 min, and OD620 was measured.
The inhibitory rate of Hsp70 ATPase activity is calculated in accordance with the following formula: Inhibitory rate (%)=(DMSO well OD−Experimental well OD)/(DMSO well OD−Blank well OD)×100
Criteria for preliminary screening: during preliminary screening, an example compound is regarded as effective in inhibition as long as its inhibitory rate is above 20% for Hsp70 ATPase at 200 μM.

Row | SMILES | inhibition at 200 µM (Hsp70 ATPase) | Inhibitory rate (%) on activity of Hsp70 ATPase (Hsp70 ATPase) | dose-response relationship with respect to inhibition of Hsp70 ATPase activity (Hsp70 ATPase) | inhibitory rate of Hsp70 ATPase activity (Hsp70 ATPase) | CDI of example compounds and Lapatinib, SK/Lap^R1.0 (SK/Lap^R1.0) | CDI of example compounds and Lapatinib, BT/Lap^R1.0 (BT/Lap^R1.0) | CDI of example compounds and Lapatinib, MDA-MB-361 (MDA-MB-361) | CDI of example compounds and Lapatinib, MDA-MB-453 (MDA-MB-453) | CDI of example compounds and Lapatinib, BT474 (BT474) | CDI of example compounds and Lapatinib, SK-BR3 (SK-BR3)
1 | COc1cc(/C=C/C(=O)NC(NC(=S)NC2CCCCC2)C(C)(C)C)cc(OC)c1OC (stereo not drawn) [Example 52, (2E)-N-[1-(3-cyclohexylthioureido)-2,2-dimethylpropyl]-3-(3,4,5-trimethoxyphenyl) acrylamide] | 35.8% |  |  |  | 1.11 | 0.86 | 0.92 | 1.18 | 0.56 | 0.88
2 | COc1ccc(-c2nc(-c3cc(C(F)(F)F)cc(C(F)(F)F)c3)n(Cc3ccc(C(N)=O)cc3)c2-c2ccc(OC)cc2)cc1 [AZ, reference compound] |  | 53.04% | dose-response relationship | 53.13% |  |  |  |  |  | 
3 | CC(C)C(NC(=O)/C=C/c1ccccc1)NC(=S)Nc1ccccc1 (stereo not drawn) [Example 42, (2E)-N-[2-methyl-1-(3-phenylthioureido)propyl] cinnamamide] | -4.2% |  |  |  | 0.99 | 0.99 | 0.96 | 1.15 | 0.92 | 1.14
4 | CC(C)C(NC(=O)/C=C/c1ccccc1)NC(=S)NC1CCCCC1 (stereo not drawn) [Example 55, N-[1-(3-cyclohexylthioureido)-2-methylpropyl] cinnamamide] | 25.9% |  |  |  | 1.8 | 1.01 | 0.94 | 1.41 | 0.89 | 1.2
5 | Cc1ccccc1NC(=S)NC(CC(C)C)NC(=O)/C=C/c1ccccc1 (stereo not drawn) [Example 47, N-[3-methyl-1-(3-o-methylphenylthioureido)butyl] cinnamamide] | 61.3% |  |  |  | 0.98 | 0.97 | 1.05 | 1.39 | 0.84 | 1.15
6 | COc1cc(/C=C/C(=O)NC(NC(=S)Nc2ccccc2)C(C)C)cc(OC)c1OC (stereo not drawn) [Example 36, (2E)-N-[2-methyl-1-(3-phenylthioureido)propyl]-3-(3,4,5-trimethoxyphenyl) acrylamide] |  |  |  |  | 0.94 | 0.96 | 0.98 | 1.3 | 0.97 | 1.07
7 | N#Cc1ccc(COC[C@H]2O[C@@H](n3c(NCc4ccc(Cl)c(Cl)c4)nc4c(N)ncnc43)[C@H](O)[C@@H]2O)cc1 [VER155008, reference compound] |  | 43.03% | dose-response relationship | 38.18% |  |  |  |  |  | 

Now from value to compound, other results behind:

Row | inhibition at 200 µM (Hsp70 ATPase) | Inhibitory rate (%) on activity of Hsp70 ATPase (Hsp70 ATPase) | dose-response relationship with respect to inhibition of Hsp70 ATPase activity (Hsp70 ATPase) | inhibitory rate of Hsp70 ATPase activity (Hsp70 ATPase) | SMILES | CDI of example compounds and Lapatinib, SK/Lap^R1.0 (SK/Lap^R1.0) | CDI of example compounds and Lapatinib, BT/Lap^R1.0 (BT/Lap^R1.0) | CDI of example compounds and Lapatinib, MDA-MB-361 (MDA-MB-361) | CDI of example compounds and Lapatinib, MDA-MB-453 (MDA-MB-453) | CDI of example compounds and Lapatinib, BT474 (BT474) | CDI of example compounds and Lapatinib, SK-BR3 (SK-BR3)
8 | -6.13% |  |  |  | COc1cc(/C=C/C(=O)NC(NC(=S)Nc2ccccn2)C(C)C)cc(OC)c1OC (stereo not drawn) [Example 35, (2E)-N-[2-methyl-1-(3-pyridin-2-ylthioureido)propyl]-3-(3,4,5-trimethoxyphenyl) acrylamide] | 0.9 | 1.04 | 0.86 | 1.37 | 0.96 | 0.99
9 | -5.66% |  |  |  | COc1cc(/C=C/C(=O)NC(NC(=S)Nc2ccccn2)C2CC2)cc(OC)c1OC (stereo not drawn) [Example 30, (2E)-N-[cyclopropyl-(3-pyridin-2-ylthioureido)-methyl]-3-(3,4,5-trimethoxyphenyl) acrylamide] | 0.82 | 0.93 | 0.85 | 1.28 | 0.94 | 0.94
10 | 44.1% |  |  |  | COc1cc(/C=C/C(=O)NC(CC(C)(C)C)NC(=S)Nc2ccccc2)cc(OC)c1OC (stereo not drawn) [Example 32, (2E)-N-[3,3-dimethyl-1-(3-phenylthioureido)butyl]-3-(3,4,5-trimethoxyphenyl)acrylamide] | 0.89 | 1.25 | 0.91 | 1.42 | 0.65 | 1.13
11 | 10.5% |  |  |  | COc1cc(/C=C/C(=O)NC(CC(C)C)NC(=S)Nc2ccccn2)cc(OC)c1OC (stereo not drawn) [Example 31, (2E)-N-[3-methyl-1-(3-pyridin-2-ylthioureido)butyl]-3-(3,4,5-trimethoxyphenyl) acrylamide] | 0.95 | 1.2 | 0.85 | 1.38 | 1.01 | 1
12 | 2.17% |  |  |  | COc1cc(/C=C/C(=O)NC(NC(=S)Nc2cccnc2)C(C)(C)C)cc(OC)c1OC (stereo not drawn) [Example 27, (2E)-N-[2,2-dimethyl-1-(3-pyridin-3-ylthioureido)propyl]-3-(3,4,5-trimethoxyphenyl) acrylamide] | 0.97 | 1.01 | 0.96 | 1.32 | 0.98 | 1
